# In PMC8780078, “Long‐acting and extended‐release implant and nanoformulations with a synergistic antiretroviral two‐drug combination controls HIV‐1 infection in a humanized mouse model” (Bioengineering & Translational Medicine, 2021):
# Key:
# HIV‐1 [1] = settings: cited from earlier work
# HIV‐1 [2] = experiment: Antiviral potency in cellular assays / HIV cell culture; type: cell-based; settings: Human immunodeficiency virus 1, in Discussion
# [3] = Pharmacokinetics of drug release from subdermal implants in Hu‐PBL mice (serum, HPLC); type: in vivo; settings: end of study sera (Day 49 nanoformulations, Day 56 implants) vs EC90 in HIV cell culture
# Experimental: Hu‐mice were anesthetized by i.p. injection of ketamine (80 mg/kg) and xylazine (12 mg/kg) in PBS (10 ml/kg) based on individual mouse body weight. After anesthetizing, approximately 1–2 cm square of the dorsal skin was shaved using an electric hair clipper, the area was cleaned with ethanol and disinfected with Betadine. Using a sterile disposable surgical blade, an incision of 4–5 mm was made through the skin. Gently, 2 cm × 3 cm subcutaneous pockets were created with forceps and implants loaded with Compound I and EFdA were co‐inserted at the same site. The opening was sutured using absorbable sutures followed by subcutaneous administration of 0.05 mg/kg buprenorphine. The animals were kept warm using the temperature‐controlled heating pads until they regained consciousness. Toxicity was evaluated by clinical observations, cage‐side observations (twice daily), and body weight (at least weekly). […]
# The data were plotted as a concentration‐time curve using PRISM 9.0 (GraphPad Software Inc., La Jolla, CA). […] was calculated using Graph pad prism where EC50 of each compound was used along with Hill slope of 1. The predicted area under the curve (AUC) for drug concentration in blood serum against time (AUC predicted) was calculated based on the linear trapezoid method.[29] AUC was also calculated for PVLs and CD4+ T‐cells in infection experiments. […]
# HERG ion channel = system: HERG ion channel; set-up: method as in PMID 28167742; settings: cited from earlier work
Structure (SMILES),synergy of Compound I with EFdA (HIV‐1 [1]; cell culture),"activity against wild‐type HIV‐1 strains and drug resistant variants (HIV‐1 [1]; wild‐type, Y181C and K103N)",EC90 (HIV‐1 [2]),EC90 (HIV‐1 [2]; from EC50 with Hill slope of 1),serum concentration fold above EC90 [3],inhibition of the HERG ion channel (HERG ion channel)
N#Cc1ccc2c(Oc3ccc(F)cc3OCCn3ccc(=O)[nH]c3=O)cc(F)cc2c1 [Compound I],potent synergy,active in the nanomolar range,10 ng/mL,25.2 nM,approximately 100 fold,no inhibition
"C#C[C@]1(CO)O[C@@H](n2cnc3c(N)nc(F)nc32)C[C@@H]1O [EFdA, 4′‐ethynyl‐2‐fluoro‐2′‐deoxyadenosine, reference compound]",,,5 ng/mL,17.1 nM,~1100 fold,
